Test [1] is described as follows: Michaelis-Menten parameter value for the incorporation of photo-labile caged moiety into a proximity to the active site.
Test [2] can be described thus: Perfect off-state by site-specific incorporation of o-nitrobenzyl (o-NB) unit into RNase S' was determined before photolysis at 10 x E5 M/min.
A short description of test [3]: Perfect off-state by site-specific incorporation of o-nitrobenzyl (o-NB) unit into RNase S' was determined after photolysis at 10 x E5 M/min.
Test [4] can be described thus: Michaelis-Menten parameter(Kcat) value for the incorporation of photo-labile caged moiety into a proximity to the active site.
A short description of test [5]: Michaelis-Menten parameter(Km) value for the incorporation of photo-labile caged moiety into a proximity to the active site.

Non-standard residues stand in square brackets, D forms with d. Residues, ends and D or L forms follow the SMILES beside them. *: point of attachment. X2 = COC(=O)C(N*)c1ccccc1[N+](=O)[O-]; X3 = O=C(OCc1ccccc1[N+](=O)[O-])*; X1 = O=[N+]([O-])c1ccccc1CO*; Nle = CCCC[C@H](N)C(=O)O

`CCCC[C@H](NC(=O)[C@H](Cc1c[nH]cn1)NC(=O)[C@H](CCC(N)=O)NC(=O)[C@H](CCCN=C(N)N)NC(=O)[C@H](CCC(=O)O)NC(=O)[C@H](Cc1ccccc1)NC(=O)[C@H](CCCCN)NC(=O)[C@H](C)NC(=O)[C@H](C)NC(=O)[C@H](C)NC(=O)[C@@H](NC(=O)[C@H](CCC(=O)O)NC(=O)[C@@H](N)CCCCN)[C@@H](C)O)C(=O)N[C@@H](CC(=O)O)C(=O)N[C@@H](CO)C(=O)O` (H-KETAAAKFERQH[Nle]DS-OH): the k cat in test [1] was determined as 4.07 min⁻¹. Moreover, the Photolysis in test [2] is 1.02.

Consider `CCCC[C@H](NC(=O)[C@H](Cc1c[nH]cn1)NC(=O)[C@H](CCC(N)=O)NC(=O)[C@H](CCCN=C(N)N)NC(=O)[C@H](CCC(=O)O)NC(=O)[C@H](Cc1ccccc1)NC(=O)[C@H](CCCCN)NC(=O)[C@H](C)NC(=O)[C@H](C)NC(=O)[C@H](C)NC(=O)[C@@H](NC(=O)[C@H](CCC(=O)OCc1ccccc1[N+](=O)[O-])NC(=O)[C@@H](N)CCCCN)[C@@H](C)O)C(=O)N[C@@H](CC(=O)O)C(=O)N[C@@H](CO)C(=O)O` (H-KE(X1)TAAAKFERQH[Nle]DS-OH), for which the RNase S' enzyme activity in test [3] turned out to be 0.81. This compound also registered a Photolysis in test [2] of 0.96.

`CCCC[C@H](NC(=O)[C@H](Cc1c[nH]cn1)NC(=O)[C@H](CCC(N)=O)NC(=O)[C@H](CCCN=C(N)N)NC(=O)[C@H](CCC(=O)O)NC(=O)[C@H](Cc1ccccc1)NC(=O)[C@H](CCCCN)NC(=O)[C@H](C)NC(=O)[C@H](C)NC(=O)[C@H](C)NC(=O)[C@@H](NC(=O)[C@H](CCC(=O)O)NC(=O)[C@@H](N)CCCCNC(=O)OCc1ccccc1[N+](=O)[O-])[C@@H](C)O)C(=O)N[C@@H](CC(=O)O)C(=O)N[C@@H](CO)C(=O)O` (H-K(X3)ETAAAKFERQH[Nle]DS-OH) yielded an RNase S' enzyme activity in test [3] of 1.04. In test [2], the Photolysis came to 1.01.

The compound `CCCC[C@H](NC(=O)[C@H](Cc1c[nH]cn1)NC(=O)[C@H](CCC(=O)NC(C(=O)OC)c1ccccc1[N+](=O)[O-])NC(=O)[C@H](CCCN=C(N)N)NC(=O)[C@H](CCC(=O)O)NC(=O)[C@H](Cc1ccccc1)NC(=O)[C@H](CCCCN)NC(=O)[C@H](C)NC(=O)[C@H](C)NC(=O)[C@H](C)NC(=O)[C@@H](NC(=O)[C@H](CCC(=O)O)NC(=O)[C@@H](N)CCCCN)[C@@H](C)O)C(=O)N[C@@H](CC(=O)O)C(=O)N[C@@H](CO)C(=O)O` (stereo partly specified) (H-KETAAAKFERE(X2)H[Nle]DS-OH) came in with an RNase S' enzyme activity in test [3] of 0.37. Besides, in test [2], the Photolysis stood at 0.

Broadly, the Km is the concentration of substrate that gives half-maximal velocity. Consider `CCCC[C@H](NC(=O)[C@H](Cc1c[nH]cn1)NC(=O)[C@H](CCC(N)=O)NC(=O)[C@H](CCCN=C(N)N)NC(=O)[C@H](CCC(=O)O)NC(=O)[C@H](Cc1ccccc1)NC(=O)[C@H](CCCCN)NC(=O)[C@H](C)NC(=O)[C@H](C)NC(=O)[C@H](C)NC(=O)[C@@H](NC(=O)[C@H](CCC(=O)O)NC(=O)[C@@H](N)CCCCN)[C@@H](C)O)C(=O)N[C@@H](CC(=O)OCc1ccccc1[N+](=O)[O-])C(=O)N[C@@H](CO)C(=O)O` (H-KETAAAKFERQH[Nle]D(X1)S-OH), for which, in test [3], the RNase S' enzyme activity stood at 0.78. For the same compound, the k cat in test [4] was determined as 3.24 min⁻¹. In test [5], the Michaelis-Menten constant (Km) came out at 1130 µM. In test [2], the Photolysis was determined as 0.29.

`CCCC[C@H](NC(=O)[C@H](Cc1c[nH]cn1)NC(=O)[C@H](CCC(N)=O)NC(=O)[C@H](CCCN=C(N)N)NC(=O)[C@H](CCC(=O)O)NC(=O)[C@H](Cc1ccccc1)NC(=O)[C@H](CCCCNC(=O)OCc1ccccc1[N+](=O)[O-])NC(=O)[C@H](C)NC(=O)[C@H](C)NC(=O)[C@H](C)NC(=O)[C@@H](NC(=O)[C@H](CCC(=O)O)NC(=O)[C@@H](N)CCCCN)[C@@H](C)O)C(=O)N[C@@H](CC(=O)O)C(=O)N[C@@H](CO)C(=O)O` (H-KETAAAK(X3)FERQH[Nle]DS-OH) returned an RNase S' enzyme activity in test [3] of 1.04. In test [2], this compound registered a Photolysis of 1.1.

For `CCCC[C@H](NC(=O)[C@H](Cc1c[nH]cn1)NC(=O)[C@H](CCC(N)=O)NC(=O)[C@H](CCCN=C(N)N)NC(=O)[C@H](CCC(=O)OCc1ccccc1[N+](=O)[O-])NC(=O)[C@H](Cc1ccccc1)NC(=O)[C@H](CCCCN)NC(=O)[C@H](C)NC(=O)[C@H](C)NC(=O)[C@H](C)NC(=O)[C@@H](NC(=O)[C@H](CCC(=O)O)NC(=O)[C@@H](N)CCCCN)[C@@H](C)O)C(=O)N[C@@H](CC(=O)O)C(=O)N[C@@H](CO)C(=O)O` (H-KETAAAKFE(X1)RQH[Nle]DS-OH), the RNase S' enzyme activity in test [3] was determined as 0.97. In test [2], this compound displayed a Photolysis of 0.99.

Source of the values: ChEMBL document CHEMBL1136413, “Caged RNase: photoactivation of the enzyme from perfect off-state by site-specific incorporation of 2-nitrobenzyl moiety” (Bioorg Med Chem Lett, 2003).
